Results reported in patent publication US11731933B2, “Device and method for the desalination of water by means of thermal deionisation and liquid-phase ion extraction liquid” (ADIONICS, priority 2015, dated 2023).
≈ marks a conversion by molar mass, not a printed value. Where “and” joins values, the source holds several entries; their conditions need not be identical. Identical values can stand only once. Like-named read-outs stand apart in the source and are kept apart here.

What was measured:
[1] = Solubility in water (UV-visible spectrometry); format: physicochemical; conditions: for solubility: water
Source text: The hydrophobicity or solubility of a compound can be measured by standard methods and in particular by UV-visible spectrometry.

[2] = methanol, published complexing constants, cited from earlier work
[3] = NaCl extraction from 0.2M NaCl water by ASM/CEM composition, ion chromatography of treated water; conditions: ASM: 3TFMPhOH; CEM 0.2M; NaCl 0.2M water
Protocol: To 3 mL of 3-(trifluoromethyl)phenol, was added 217 mg of Dibenzo-18-crown-6 in order to obtain a formulation with 0.2 mole/L of DB18C6. This sealed formulation was then orbitally stirred at 500 rpm overnight after 1 mL of distilled water was added twice to allow water saturation of the whole.
The next morning, an aqueous 0.2 mol/L NaCl solution was prepared from twice distilled water, while the formulation that was stirred overnight was allowed to stand for decantation. A clear decantation of the two colorless phases is obtained in a few minutes. 3 mL of the organic extraction solution is then removed and transferred to a flask containing 3 mL of this salt water containing 0.2 M NaCl, then the flask is sealed and orbitally stirred (usually 500 rpm), for 3 hours and at room temperature. It is verified that droplets of the order of 1-2 mm are present in quantity at the selected stirring speed (400 to 900 rpm).
After stirring for 2 hours, stirring is stopped and the whole is left to stand for decantation for at least 10 minutes until the two phases are completely separated. The upper aqueous phase is then removed and then stirred and diluted for analysis of its salinity by a Metrohm Ion Chromatography Incorporating a suitable cation analysis column and a suitable anion analysis column. Similarly, the initial aqueous solution of 0.2M NaCl is also analyzed by this ion chromatography equipment to determine its relative concentration of sodium and chlorides. […]

[4] = NaCl extraction from 0.4M NaCl water by ASM + Calix[4]Est in chloroform (Example 11); conditions: for Mol % Cl- extracted from the water to be treated / Mol % Na+ extracted from the water to be treated: CEM 0.3 Mol/L, ASM 0.3 Mol/L in CHCl3, 0.4 M NaCl
Protocol: The extraction composition is obtained by solubilizing an amount of 4-tert-butyl Calix[4]arene tetraethyl Ester (CAS No. 97600-39-0) and ASM in chloroform CHCl3 to obtain a final concentration after solubilization of the CEM and ASM of 0.3 mol/L for Calix[4]Est and of 0.3 mol/L for ASM, respectively. These sealed formulations were then orbitally stirred at 500 rpm for 2 hours after adding an equivalent volume of twice distilled water to allow water saturation of the entire formulation and control of pH output (pH=7). The extraction composition is then put to stand to settle. All the compositions tested are stable and rapidly decanted (a few minutes at the most).
A 0.4 mol/L NaCl aqueous solution was prepared from twice distilled water.
The organic extraction composition is then slightly heated to promote solubilization of the compounds by hot air gun (temperature of about 50 to 60° C.) for a few seconds (10 to 30 seconds) until a clear solution is obtained.
3 mL of the organic extraction composition is then removed from the lower phase of the settled two-phase mixture and transferred to a vial containing 3 mL of salt water at 0.4 M NaCl and then the flask is sealed and orbitally stirred (at 500 revolutions per minute), for 2 hours at room temperature (RT), that is to say between 20 and 25° C. In the case of extraction at 60° C., magnetic stirring (at 500 revolutions per minute), for 2 hours, is carried out with indirect heating in a metal mold on a heating plate. It is verified that droplets of the order of 1-2 mm are present during these agitations in order to be certain to achieve equilibrium in the NaCl distribution between the two liquid phases at the end of stirring. The appearance of the organic and aqueous phases is clear and colorless or slightly cloudy.
After stirring for 2 hours, stirring is stopped and the solution is put to stand to settle within 10 minutes, at least until the two phases have completely separated off, at the temperature of the test. The upper aqueous phase is then removed and then stirred and diluted for analysis of its salinity by a Metrohm Ion Chromatograph incorporating a suitable cation analysis column and a suitable anion analysis column. Similarly, the initial aqueous solution of NaCl at 0.4M is also analyzed by this ion chromatograph to determine its relative molar concentration in sodium and in chlorides. AN extractions and analyzes were duplicated.

Molecule `CC(O)c1cccc(C(F)(F)C(F)(F)C(F)(F)F)c1` (stereo not shown) has a solubility [1] of 420 µM (≈ 122 µg/mL).
Work on `OC(c1cccc(C(F)(F)F)c1)c1cccc(C(F)(F)F)c1` yielded a solubility ([1]; read-out: Solubility in water) of 70 µM (≈ 22.4 µg/mL).
In the case of “4-tert-Butylcalix[4]arene-O,O′,O″,O′′′- tetraacetic Acid Tetraethyl Ester [Calix[4]Est]”, the “Log K(Na+, MeOH, 25° C.)” value ([2]; listed as Calix4Est) is given as 5.0-5.7, the “Log K(Na+, MeOH, 25° C.)” value [2] is given as 5.0 and the Solubility in water [1] is given as < 1.10^−6 mMole/L. For the same molecule, the “Extraction rate at 23° C., Cl−” value [3] was 77%, the “Extraction rate at 23° C., Na+” value [3] was 75% and the “Extraction rate at 23° C., mean NaCl” value [3] was 76%.
In the case of `CCCCCCCCCCCC(=O)Nc1cc(C(F)(F)F)cc(C(F)(F)F)c1` [ASMC11, N-[3,5-bis(trifluoromethyl)phenyl]dodecanamide], the “NaCl - 20° C. % ext (average)” value ([4]; 20° C., average molar extraction) is reported as 23.8%, the “Mol % Cl- extracted from the water to be treated” value ([4]; 60° C.) is reported as 4.9% and 7.7% and the “Mol % Na+ extracted from the water to be treated” value ([4]; 60° C.) is reported as 3.4% and 7.1%. The “NaCl - 60° C. % ext (average)” value ([4]; 60° C., average molar extraction) was 5.8%, the “Mol % Cl- extracted from the water to be treated” value ([4]; RT) was 24.5% and 25.3% and the “Mol % Na+ extracted from the water to be treated” value ([4]; RT) was 22.4% and 23.1%. The Δ % ext ([4]; difference 20° C. minus 60° C.) was 18.0%.
`CCCC(O)c1cc(C(F)(F)F)cc(C(F)(F)F)c1` (stereo not shown) gave a solubility ([1]; read-out: Solubility in water) of 480 µM (≈ 137 µg/mL).
